# Paper PMC8165439, “Chymase Dependent Pathway of Angiotensin II Generation and Rapeseed Derived Peptides for Antihypertensive Treatment of Spontaneously Hypertensive Rats” (Frontiers in Pharmacology, 2021)
# How the values were obtained:
# [1] = system: anesthetized spontaneously hypertensive rats (SHR); test: Acute infusion of chymostatin to anesthetized rats, mean arterial blood pressure; format: in vivo, rat; details: anesthetized adult SHR, chymostatin 2 mg/kg iv infusion 1 h, n = 7; decrease observed 30 min after cessation of infusion
# Protocol: In acute experiments rats were anesthetized with intraperitoneal (ip) sodium thiopental (100 mg/kg; Sandoz GmbH, Kundl, Austria), which provided stable anesthesia for about 4 h. All surgical preparations were already described in detail ([Gawrys et al., 2014]; [Badzynska et al., 2020]). Throughout the experiment the temperature of the animal was kept constant (37°C). A cannula was placed in the trachea to ensure a free airway. The jugular vein was cannulated for infusion of fluids and drugs; during surgical preparations 3% bovine albumin in Ringer solution was infused at 10 ml/kg/h. For mean arterial blood pressure (MBP) measurement, a Teflon catheter was placed in the femoral artery (Stoelting Blood Pressure Meter, Wood Dale, IL, United States). After surgical preparations and stabilization of all parameters, a short control period (30 min) was made to obtain baseline for measured parameters. Chymostatin or its solvent (final concentration of DMSO was 0.05%) were administered for 1 h. After cessation of chymostatin infusion, a recovery period (30 min) was made. In the end, the animals were sacrificed by sodium thiopental overdose (iv); and vital life signs (blood pressure, breathing) were monitored until death.
# ACE = details: ref Petrie et al., 2001; cited from earlier work
# [2] = system: spontaneously hypertensive rats (SHR); test: Glomerulosclerosis index (GSI) after chronic treatment; format: in vivo, rat; details: after 14 days daily iv CH 2, RIY 7.5, VWIS 12.5 mg/kg/day, mean ± SEM, n = 5
# Protocol: (§1) After the chronic experiment rats were anesthetized with sodium thiopental (100 mg/kg, ip, Sandoz GmbH, Kundl, Austria) and the heart, kidney and tibia were harvested for morphologic analysis. Additionally, left ventricular hypertrophy was assessed: the hearts were immediately harvested, dried with filter paper, and weighed. Then the left ventricle (LV) was carefully excised and weighed again. Left ventricular hypertrophy was assessed based on the ratio of LV mass to tibia length (LV/tibia).
# The kidneys were fixed in 4% buffered formalin, embedded in paraffin and stained with hematoxylin/eosin for morphology evaluation. Glomerulosclerosis/hyalinosis index (GSI) was defined as segmental solidification of the glomerular capillary tuft, segmental collapse, obliteration of capillary lumen and accumulation of hyaline. Fifty glomeruli per section were randomly selected and evaluated using semi-quantitative scoring method as described in detail previously ([Maric et al., 2004]; [Gawrys et al., 2018]). Blind group allocation of the investigators was used.
# [3] = system: spontaneously hypertensive rats (SHR); test: Metabolic parameters in metabolic cages during chronic treatment; format: in vivo, rat; details: mean ± SEM
# Protocol: (§2) Systolic and diastolic blood pressure (SBP and DBP, respectively) and heart rate (HR) were measured in conscious unrestrained rats by telemetry technique, once a week for 24 h. 24 hour observations in metabolic cages (Tecniplast S. p.A. Buguggiate, Italy) were performed weekly. The diuresis, weight of feces, food and water intake were measured; urine and blood samples were collected on day 0, 7th and 14th, and were centrifuged at 1200 g (blood for 15 min and urine for 5 min), then the samples were stored at –80°C until analysis.
# (§3) On day 0 all animals received saline (0.9% NaCl) and then, for 14 consecutive days, the substance tested. Chymostatin (CH, 2 mg/kg/day) was dissolved in DMSO and then diluted with PBS (final concentration of DMSO was 0.15%). Peptides RIY (7.5 mg/kg/day) and VWIS (12.5 mg/kg/day) were dissolved in saline (0.9% NaCl, S). The substances were administered through the femoral vein during 10 min in the volume of 0.5 ml to young SHR (infusion rate: 3 ml/h) and 1 ml to adult rats (infusion rate: 6 ml/h). Control rats received solvents (either DMSO or saline) in the same volume.
# (§4) Urine volume was determined by gravimetric method. Sodium and potassium concentration in urine and plasma were measured by flame photometry (PFP7/C, Jenway Ltd, Stone, United Kingdom). Urine and plasma osmolality were measured by freezing point depression (Osmomat® 030 M, Gonotec, Berlin, Germany). These parameters were used to determine the excretion rates of total solutes (UosmV), sodium (UNaV) and potassium (UKV). Commercially available ELISA kits were used to measure nitric oxide metabolites (NOx, SunRed, Shanghai) and albumin (Albumin, ICL, Portland) concentration in urine. Excretion rate of NOx (UNOxV) and albumin (UAE) were calculated.
# [4] = system: spontaneously hypertensive rats (SHR); test: Chronic iv treatment, urinary albumin excretion (UAE); format: in vivo, rat; details: mean ± SEM, n = 5
# Protocol: as §2, §3, §4
# [5] = system: spontaneously hypertensive rats (SHR); test: Left ventricular hypertrophy (LV/tibia) after chronic treatment; format: in vivo, rat; details: after 14 days daily iv CH 2, RIY 7.5, VWIS 12.5 mg/kg/day, mean ± SEM, n = 5
# Protocol: as §1
# [6] = adult SHR (SHR-16), day 0 (baseline)
# [7] = adult SHR (SHR-16), day 7 of daily iv treatment
# [8] = adult SHR (SHR-16), day 14 of daily iv treatment
# [9] = young SHR (SHR-6), day 0 (baseline)
# [10] = young SHR (SHR-6), day 7 of daily iv treatment
# [11] = young SHR (SHR-6), day 14 of daily iv treatment
compound,measurement,setting,value
"CC(C)C[C@H](NC(=O)[C@@H](NC(=O)N[C@@H](Cc1ccccc1)C(=O)O)[C@@H]1CCN=C(N)N1)C(=O)N[C@H](C=O)Cc1ccccc1 [CH, chymostatin]",Mean blood pressure (MBP) after single intravenous infusion,[1],decreased significantly
same,block of ACE by chymostatin,ACE,does not block ACE
same,glomerulosclerosis index (GSI),[2]; adult SHR,0.50 ± 0.07
same,glomerulosclerosis index (GSI),[2]; young SHR,0.51 ± 0.07
same,Body weight,"[3]; adult SHR (SHR-16), day 0 (baseline), CH n=8, RIY n=5-6, VWIS n=5-6",271 ± 16 g
same,Diuresis,[3]; [6],6.9 ± 1.9 µL/min
same,Faeces,[3]; [6],9±1 g/24 h
same,Food intake,[3]; [6],21±1 g/24 h
same,Water intake,[3]; [6],29±3 g/24 h
same,Body weight,"[3]; adult SHR (SHR-16), day 7 of daily iv CH 2, RIY 7.5, VWIS 12.5 mg/kg/day",285 ± 17 g
same,Diuresis,[3]; [7],7.4 ± 2.1 µL/min
same,Faeces,[3]; [7],8±1 g/24 h
same,Food intake,[3]; [7],17±1 g/24 h
same,Water intake,[3]; [7],29±3 g/24 h
same,Body weight,"[3]; adult SHR (SHR-16), day 14 of daily iv CH 2, RIY 7.5, VWIS 12.5 mg/kg/day",298 ± 19 g
same,Diuresis,[3]; [8],8.1 ± 2.9 µL/min
same,Faeces,[3]; [8],9±1 g/24 h
same,Food intake,[3]; [8],20±2 g/24 h
same,Water intake,[3]; [8],29±4 g/24 h
same,Body weight,"[3]; young SHR (SHR-6), day 0 (baseline), CH n=8-10, RIY n=5, VWIS n=5-6",131 ± 10 g
same,Diuresis,[3]; [9],6.1 ± 0.5 µL/min
same,Faeces,[3]; [9],7±1 g/24 h
same,Food intake,[3]; [9],15±1 g/24 h
same,Water intake,[3]; [9],23±2 g/24 h
same,Body weight,"[3]; young SHR (SHR-6), day 7 of daily iv CH 2, RIY 7.5, VWIS 12.5 mg/kg/day",159 ± 5 g
same,Diuresis,[3]; [10],9.9 ± 1.4 µL/min
same,Faeces,[3]; [10],11±1 g/24 h
same,Food intake,[3]; [10],18±2 g/24 h
same,Water intake,[3]; [10],29±5 g/24 h
same,Body weight,"[3]; young SHR (SHR-6), day 14 of daily iv CH 2, RIY 7.5, VWIS 12.5 mg/kg/day",196 ± 4 g
same,Diuresis,[3]; [11],10.0 ± 0.9 µL/min
same,Faeces,[3]; [11],12±1 g/24 h
same,Food intake,[3]; [11],20±2 g/24 h
same,Water intake,[3]; [11],32±3 g/24 h
same,Urinary albumin excretion (UAE),"[4]; adult SHR, day 0 (baseline, saline)",0.59 ± 0.33 mg/24h
same,Urinary albumin excretion (UAE),"[4]; adult SHR, day 7 of daily iv CH 2, RIY 7.5, VWIS 12.5 mg/kg/day",0.41 ± 0.04 mg/24h
same,Urinary albumin excretion (UAE),"[4]; adult SHR, day 14 of daily iv CH 2, RIY 7.5, VWIS 12.5 mg/kg/day",0.84 ± 0.32 mg/24h
same,Urinary albumin excretion (UAE),"[4]; young SHR, day 0 (baseline, saline)",0.03 ± 0.01 mg/24h
same,Urinary albumin excretion (UAE),"[4]; young SHR, day 7 of daily iv CH 2, RIY 7.5, VWIS 12.5 mg/kg/day",0.07 ± 0.01 mg/24h
same,Urinary albumin excretion (UAE),"[4]; young SHR, day 14 of daily iv CH 2, RIY 7.5, VWIS 12.5 mg/kg/day",0.13 ± 0.03 mg/24h
same,left ventricular hypertrophy (LV/tibia),[5]; adult SHR,20.7 ± 2.6 mg/mm
same,left ventricular hypertrophy (LV/tibia),[5]; young SHR,16.7 ± 0.9 mg/mm
